According to patent publication US6905852B1, “Herbicide-resistant protoporphyrinogen oxidase isolated from Nicotiana tabacum” (Nihon Nohyaku Co., Ltd., priority 1997, dated 2005):
pIC50: −log10 of the molar value. Where two headings read alike, the source gives them in different places.

Columns and labels:
[1] = biological target: T1, E. coli SASX38 strain having pBAtPX-C with Arabidopsis thaliana wild type protoporphyrinogen oxidase gene (Arabidopsis thaliana, UniProt P55826); experiment: Growth inhibition of E. coli SASX38 (liquid culture with shaking); assay type: cell-based
T1 construct: expressed in transfected cells; host or cells: E. coli SASX38 (hemG-deficient) carrying pBAtPX-C (pBluescript SK(-))
T1 sequence (P55826 35-537): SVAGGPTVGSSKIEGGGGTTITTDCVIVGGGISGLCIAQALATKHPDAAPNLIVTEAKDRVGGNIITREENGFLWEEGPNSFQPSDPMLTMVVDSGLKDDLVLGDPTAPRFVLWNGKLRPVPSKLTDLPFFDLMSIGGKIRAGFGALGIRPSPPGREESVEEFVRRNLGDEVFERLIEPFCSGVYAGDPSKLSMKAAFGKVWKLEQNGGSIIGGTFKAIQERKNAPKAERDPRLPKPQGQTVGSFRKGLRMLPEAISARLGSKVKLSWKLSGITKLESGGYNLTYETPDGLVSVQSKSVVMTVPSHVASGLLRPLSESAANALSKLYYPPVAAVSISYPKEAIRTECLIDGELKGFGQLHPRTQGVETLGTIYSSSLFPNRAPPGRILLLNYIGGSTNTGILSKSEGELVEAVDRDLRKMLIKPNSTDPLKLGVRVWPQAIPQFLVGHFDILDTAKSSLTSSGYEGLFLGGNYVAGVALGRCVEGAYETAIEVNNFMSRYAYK
Experimental: (§1) The E. coli SASX38 strain containing either of the above-described two kinds of plasmid was cultured with shaking in LB liquid medium containing 50 μg/ml of ampicillin at 28° C. for overnight.

[2] = biological target: T2, E. coli SASX38 strain having pBAtPX-RC with Arabidopsis thaliana resistant type protoporphyrinogen oxidase cDNA (Arabidopsis thaliana, UniProt P55826, A220V); experiment: as above; assay type: cell-based; details: for R/S a) Arabidopsis thaliana: Resistant type/Wild type
T2 construct: expressed in transfected cells; host or cells: E. coli SASX38 (hemG-deficient) carrying pBAtPX-RC (pBluescript SK(-))
T2 sequence (P55826 35-537 A220V): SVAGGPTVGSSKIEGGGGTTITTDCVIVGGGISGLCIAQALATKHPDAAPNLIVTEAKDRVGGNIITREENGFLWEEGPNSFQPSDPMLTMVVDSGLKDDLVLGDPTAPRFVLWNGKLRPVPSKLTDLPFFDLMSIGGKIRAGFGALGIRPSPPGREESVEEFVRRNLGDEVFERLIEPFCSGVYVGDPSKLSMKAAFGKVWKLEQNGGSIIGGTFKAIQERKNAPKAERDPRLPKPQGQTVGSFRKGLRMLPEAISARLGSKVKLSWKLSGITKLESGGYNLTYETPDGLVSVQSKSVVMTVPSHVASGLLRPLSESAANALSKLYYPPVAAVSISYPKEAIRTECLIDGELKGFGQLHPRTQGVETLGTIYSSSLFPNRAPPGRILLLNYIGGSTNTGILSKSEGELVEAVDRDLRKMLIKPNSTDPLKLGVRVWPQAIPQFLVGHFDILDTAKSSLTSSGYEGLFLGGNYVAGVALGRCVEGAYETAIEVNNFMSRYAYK
Experimental: as §1

[3] = biological target: T3, E. coli SASX38 strain having pCR-HC with tobacco wild type protoporphyrinogen oxidase cDNA (Nicotiana tabacum, UniProt O24163); experiment: as above; assay type: cell-based
T3 construct: expressed in transfected cells; host or cells: E. coli SASX38 (hemG-deficient) carrying pCR-HC
T3 sequence (O24163 51-548): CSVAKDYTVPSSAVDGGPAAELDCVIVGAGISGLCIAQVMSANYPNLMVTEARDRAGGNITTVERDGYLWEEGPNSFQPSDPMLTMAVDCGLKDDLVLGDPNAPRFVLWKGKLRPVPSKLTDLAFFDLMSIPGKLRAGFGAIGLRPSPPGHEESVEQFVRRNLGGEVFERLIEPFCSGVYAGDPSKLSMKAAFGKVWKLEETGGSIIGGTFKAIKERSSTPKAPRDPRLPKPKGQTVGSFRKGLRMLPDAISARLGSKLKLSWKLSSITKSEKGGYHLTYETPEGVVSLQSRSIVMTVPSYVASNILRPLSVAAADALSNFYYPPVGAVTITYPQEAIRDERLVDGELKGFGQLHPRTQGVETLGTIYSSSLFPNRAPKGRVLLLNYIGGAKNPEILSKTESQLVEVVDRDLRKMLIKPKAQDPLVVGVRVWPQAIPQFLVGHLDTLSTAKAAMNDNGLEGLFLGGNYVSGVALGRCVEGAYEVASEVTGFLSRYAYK
Experimental: as §1

[4] = biological target: T4, E. coli SASX38 strain having pCR-RC with tobacco resistant type protoporphyrinogen oxidase gene (Nicotiana tabacum, UniProt O24163, A174P/A191P/A231V/T382S); experiment: as above; assay type: cell-based
T4 construct: expressed in transfected cells; host or cells: E. coli SASX38 (hemG-deficient) carrying pCR-RC
T4 sequence (O24163 whole entry A174P/A191P/A231V/T382S): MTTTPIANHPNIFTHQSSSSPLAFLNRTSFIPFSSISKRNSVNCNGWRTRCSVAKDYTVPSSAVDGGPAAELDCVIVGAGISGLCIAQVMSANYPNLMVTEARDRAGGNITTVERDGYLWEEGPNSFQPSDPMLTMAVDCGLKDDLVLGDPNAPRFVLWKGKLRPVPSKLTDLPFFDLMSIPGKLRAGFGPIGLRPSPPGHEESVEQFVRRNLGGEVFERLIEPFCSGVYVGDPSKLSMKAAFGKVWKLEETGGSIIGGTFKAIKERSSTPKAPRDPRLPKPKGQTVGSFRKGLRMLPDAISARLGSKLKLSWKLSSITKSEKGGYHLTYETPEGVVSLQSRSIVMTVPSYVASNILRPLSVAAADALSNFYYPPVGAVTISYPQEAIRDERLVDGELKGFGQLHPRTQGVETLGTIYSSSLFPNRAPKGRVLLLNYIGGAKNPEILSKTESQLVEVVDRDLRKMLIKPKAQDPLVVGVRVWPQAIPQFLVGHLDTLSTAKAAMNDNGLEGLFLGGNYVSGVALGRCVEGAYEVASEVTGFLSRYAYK
Experimental: as §1

[5] = test system: E. coli SASX38 strain having pCR-RC with tobacco resistant type protoporphyrinogen oxidase gene; experiment: as above; assay type: cell-based, Nicotiana tabacum; details: for R/S b) Tobacco: Resistant type/Wild type; for Superiority c): b/a: tobacco R/S over Arabidopsis thaliana R/S
Experimental: as §1

ETR-056 = experiment: MIC on MS agar medium, cross-resistance to herbicides; assay type: cell-based, Nicotiana tabacum
Description: (§2) Further, cross-resistance of a resistant strain tolerant to herbicides with various modes of action was examined. Sensitivity to fomesafen (trade mark: FLEX) and oxadiazon (trade mark: RONSTAR), which are photobleaching herbicide and accumulate protoporphyrin IX; pyrazoxyfen (trademark: PAICER) which is a chlorophyll synthesis inhibitor and causes bleaching; DPX-84 and bialaphos (trademark: BASTA) and glyphosate (trademark: ROUNDUP) which are an inhibitor of the amino acid synthesis; butachlor (trademark: MACHETE) which is a protein synthesis inhibitor; propanil (trademark: STAM) which is an inhibitor of light synthesis photochemical system II and paraquat (trademark: PREEGLOX) which is an inhibitor of photosystem I and produces an active oxygen was compared. Into MS agar medium containing each herbicides, each resistant strain was transplanted and minimum inhibition concentration (MIC) was measured. […] From the above results, ETR-056 was thought to have resistance to an active oxygen caused by overproduction of superoxide dismutase, and ETR-253 was thought to have resistance to many herbicides caused by decreasing of a membrane permeability, and ETR-245 was thought to have resistance caused by mutation of a target enzyme or overproduction of a target enzyme.
(§3) MIC of compound A to the sensitive cell lines, ETR-056, ETR-245 and ETR-253 were measured.

ETR-245 = experiment: as above; assay type: cell-based, Nicotiana tabacum
Description: as §2, §3

ETR-253 = experiment: as above; assay type: cell-based, Nicotiana tabacum
Description: as §2, §3

Sensitive strain = experiment: as above; assay type: cell-based, Nicotiana tabacum; details: Sensitive strain
Description: as §2, §3

Compound | pIC50 [1] | pIC50 [2] | R/S a) Arabidopsis thaliana [2] | pIC50 [3] | pIC50 [4] | R/S b) Tobacco [5] | Superiority c) [5] | IC50 ([1]; E. coli liquid culture method with shaking, read-out: I50 (nM) Arabidopsis thaliana Wild) [nM] | IC50 ([3]; E. coli liquid culture method with shaking, read-out: I50 (nM) Tobacco Wild) [nM] | MIC (ppm) (ETR-056) | MIC (ppm) (ETR-245) | MIC (ppm) (ETR-253) | MIC (ppm) (Sensitive strain)
CCOC(=O)C(C)Nc1cc(-c2nn(C)c(OC(F)F)c2Cl)c(Cl)cc1Cl (stereo not drawn) [Comp.B, ethyl 2-[5-(4-chloro-5-difluoromethoxy-1-methyl-1H-pyrazol-3-yl)-2,4-dichloro-phenylamino]propionate] | 7.68 | 4.74 | 860 | 8.66 | < 4.70 | 9,100 | >10.6 | – | – | – | – | – | –
COc1cc(-c2nn(C)c(OC(F)F)c2Cl)c(F)cc1Cl [Comp.C, 4-chloro-3-(4-chloro-2-fluoro-5-methoxyphenyl)-5-difluoromethoxy-1-methyl-1H-pyrazole] | 8.52 | 5.74 | 600 | 9.60 | 5.66 | 8,800 | 14.7 | – | – | – | – | – | –
C#CCOc1cc(-c2nn(C)c(OC(F)F)c2Cl)c(F)cc1Cl [Comp.D, 4-chloro-3-[4-chloro-2-fluoro-5-(2-propynyl)oxyphenyl]-5-difluoromethoxy-1-methyl-1H-pyrazole] | 9.85 | 6.55 | 2,000 | 10.57 | 6.17 | 25,000 | 12.5 | – | – | – | – | – | –
CCOC(=O)C(C)Oc1cc(-c2nn(C)c(OC(F)F)c2Cl)c(F)cc1Cl (stereo not drawn) [Comp.E, ethyl 2-[2-chloro-5-(4-chloro-5-difluoromethoxy-1-methyl-1H-pyrazol-3-yl)-4-fluorophenoxy]propionate] | 8.38 | 5.40 | 950 | 9.28 | 5.20 | 12,000 | 12.6 | – | – | – | – | – | –
CC(C)OC(=O)c1cc(-c2nn(C)c(C(F)(F)F)c2Br)c(F)cc1Cl [Comp.F, 1-methylethyl 5-[4-bromo-1-methyl-5-(trifluoromethyl)-1H-pyrazol-3-yl]-2-chloro-4-fluorobenzoate] | – | 5.19 | 280 | – | 4.82 | 4,700 | 16.8 | 23 | 3.2 | – | – | – | –
Cn1nc(-c2ccc(Cl)cc2F)c(Cl)c1OC(F)F [Comp.G, 4-chloro-3-(4-chloro-2-fluorophenyl)-5-difluorom ethoxy-1-methyl-1H-pyrazole] | 7.72 | 5.06 | 460 | 8.51 | 4.77 | 5,500 | 12.0 | – | – | – | – | – | –
COC(=O)c1ccccc1CS(=O)(=O)NC(=O)Nc1nc(OC)cc(OC)n1 [DPX-84] | – | – | – | – | – | – | – | – | – | 0.01 | 0.01 | 0.1 | 0.01
C[C@H](NC(=O)[C@H](C)NC(=O)[C@@H](N)CCP(C)(=O)O)C(=O)O [bialaphos] | – | – | – | – | – | – | – | – | – | 1 | 1 | 10 | 10
CCCCOCN(C(=O)CCl)c1c(CC)cccc1CC [butachlor] | – | – | – | – | – | – | – | – | – | 100 | 100 | 100 | 100
CS(=O)(=O)NC(=O)c1cc(Oc2ccc(C(F)(F)F)cc2Cl)ccc1[N+](=O)[O-] [fomesafen] | – | – | – | – | – | – | – | – | – | 4 | 4 | 4 | 0.4
O=C(O)CNCP(=O)(O)O [glyphosate] | – | – | – | – | – | – | – | – | – | 230 | 230 | 1000 | 230
CC(C)Oc1cc(-n2nc(C(C)(C)C)oc2=O)c(Cl)cc1Cl [oxadiazon] | – | – | – | – | – | – | – | – | – | 1000 | 1000 | 1000 | 1
C[n+]1ccc(-c2cc[n+](C)cc2)cc1 [paraquat] | – | – | – | – | – | – | – | – | – | 100 | 10 | 10 | 10
CCC(=O)Nc1ccc(Cl)c(Cl)c1 [propanil] | – | – | – | – | – | – | – | – | – | 100 | 100 | 100 | 100
Cc1nn(C)c(OCC(=O)c2ccccc2)c1C(=O)c1ccc(Cl)cc1Cl [pyrazoxyfen] | – | – | – | – | – | – | – | – | – | 100 | 100 | 200 | 100
